Source: US20250145665A1, “MACROCYCLIC PEPTIDES USEFUL AS MODULATORS OF TNF ALPHA” (Bristol-Myers Squibb Company, priority 2023, published 2025)
Starred links: 1 amine or outer side, 2 acyl side, 3 side chain; linkers in the order of their positions; H or OH if unused. Positions of bridges follow the written chain, without caps; N, C: chain ends. Non-standard residues stand in square brackets, D forms with d. Residues, ends and D or L forms follow the SMILES beside them. Bip(4'-COOH) = N[C@@H](Cc1ccc(-c2ccc(C(=O)O)cc2)cc1)C(=O)O; Bip(4'-NHAc) = CC(=O)Nc1ccc(-c2ccc(C[C@H](N)C(=O)O)cc2)cc1; Phe(3-CH2NH2) = O=C([C@H](Cc1cccc(CN[*:3])c1)N[*:1])[*:2]; Ala(morpholin-4-yl) = N[C@@H](CN1CCOCC1)C(=O)O; Bip = N[C@@H](Cc1ccc(-c2ccccc2)cc1)C(=O)O; Morpholine(3S-CO) = O=C(O)[C@@H]1COCCN1; Val(3-OH) = CC(C)(O)[C@H](N)C(=O)O; 2Pal = N[C@@H](Cc1ccccn1)C(=O)O; Pip = O=C(O)[C@@H]1CCCCN1; Nle = CCCC[C@H](N)C(=O)O; Aze = O=C(O)[C@@H]1CCN1; Abu = CC[C@H](N)C(=O)O; Sar = CNCC(=O)O

Target: TNFα (Homo sapiens, UniProt P01375)
Assay: TNF-Induced HEK-Blue Assay
Format: cell-based
Conditions: HEK-Blue-CD40L cells, NF-kB-driven secreted alkaline phosphatase reporter; TNFα 0.5 ng/ml; 18 h; read-out: TNF induced HEK-Blue assay IC50 value

TNFα, sequence (P01375 77-233 limits assumed): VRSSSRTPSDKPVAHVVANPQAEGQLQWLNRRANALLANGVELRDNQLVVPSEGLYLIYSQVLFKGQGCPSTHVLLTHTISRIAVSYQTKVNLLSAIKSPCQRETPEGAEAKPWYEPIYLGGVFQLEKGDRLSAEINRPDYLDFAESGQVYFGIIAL

| Compound | IC50 [nM] |
| --- | --- |
| CC(=O)Nc1ccc(-c2ccc(C[C@@H]3NC(=O)[C@H](Cc4ccc(-c5ccccc5)cc4)NC(=O)[C@H](CN4CCOCC4)NC(=O)CSC[C@@H](C(=O)NCC(N)=O)NC(=O)[C@H](CC(C)C)NC(=O)[C@H](CCCNC(=N)N)NC(=O)[C@H](C(C)(C)O)NC(=O)[C@@H]4CCCN4C(=O)[C@H](C(C)C)NC(=O)[C@@H](CCCNC(=N)N)NC(=O)[C@H](CC(=O)O)NC(=O)[C@@H]4CCCN4C(=O)CN(C)C3=O)cc2)cc1 [Example 160] ({CH2CO}-[Ala(morpholin-4-yl)][Bip][Bip(4'-NHAc)][Sar]PD[dR]VP[Val(3-OH)]RLCG-NH2; thioether N-13) | 50 to 200 |
| CC[C@@H]1NC(=O)[C@@H]2CCCN2C(=O)[C@H](C(C)C)NC(=O)[C@@H](CCCNC(=N)N)NC(=O)[C@H](CC(=O)O)NC(=O)[C@H](Cc2ccc(O)cc2)NC(=O)CN(C)C(=O)[C@H](Cc2ccc(-c3ccccc3)cc2)NC(=O)[C@H](Cc2ccc(-c3ccccc3)cc2)NC(=O)[C@H](CN2CCOCC2)NC(=O)CSC[C@@H](C(=O)NCC(N)=O)NC(=O)[C@H](CC(C)C)NC(=O)[C@H](Cc2ccc(O)cc2)NC1=O [Example 161] ({CH2CO}-[Ala(morpholin-4-yl)][Bip][Bip][Sar]YD[dR]VP[Abu]YLCG-NH2; thioether N-13) | 50 to 200 |
| CC(C)C[C@@H]1NC(=O)[C@H](Cc2ccc(O)cc2)NC(=O)[C@H](C)NC(=O)[C@@H]2CCCN2C(=O)[C@H](C(C)C)NC(=O)[C@@H](CCCNC(=N)N)NC(=O)[C@H](CC(=O)O)NC(=O)[C@H](Cc2ccc(O)cc2)NC(=O)CN(C)C(=O)[C@H](Cc2ccc(-c3ccccc3)cc2)NC(=O)[C@H](Cc2ccc(-c3ccccc3)cc2)NC(=O)[C@H](CN2CCOCC2)NC(=O)CSC[C@@H](C(=O)NCC(N)=O)NC1=O [Example 162] ({CH2CO}-[Ala(morpholin-4-yl)][Bip][Bip][Sar]YD[dR]VPAYLCG-NH2; thioether N-13) | 50 to 200 |
| CCCC[C@@H]1NC(=O)[C@@H]2CCCN2C(=O)[C@H](C(C)C)NC(=O)[C@@H](CCCNC(=N)N)NC(=O)[C@H](CC(=O)O)NC(=O)[C@H](Cc2ccc(O)cc2)NC(=O)CN(C)C(=O)[C@H](Cc2ccc(-c3ccccc3)cc2)NC(=O)[C@H](Cc2ccc(-c3ccccc3)cc2)NC(=O)[C@H](CN2CCOCC2)NC(=O)CSC[C@@H](C(=O)NCC(N)=O)NC(=O)[C@H](CC(C)C)NC(=O)[C@H](Cc2ccc(O)cc2)NC1=O [Example 163] ({CH2CO}-[Ala(morpholin-4-yl)][Bip][Bip][Sar]YD[dR]VP[Nle]YLCG-NH2; thioether N-13) | 200 to 2000 |
| CC(=O)Nc1ccc(-c2ccc(C[C@@H]3NC(=O)[C@H](Cc4ccc(-c5ccc(C(=O)O)cc5)cc4)NC(=O)[C@H](CN4CCOCC4)NC(=O)CSC[C@@H](C(=O)NCC(N)=O)NC(=O)[C@H](CC(C)C)NC(=O)[C@H](Cc4ccc(O)cc4)NC(=O)[C@H](C(C)C)NC(=O)[C@@H]4CCCN4C(=O)[C@H](C(C)C)NC(=O)[C@@H](CCCNC(=N)N)NC(=O)[C@H](CC(=O)O)NC(=O)[C@H](Cc4ccc(O)cc4)NC(=O)CN(C)C3=O)cc2)cc1 [Example 164] ({CH2CO}-[Ala(morpholin-4-yl)][Bip(4'-COOH)][Bip(4'-NHAc)][Sar]YD[dR]VPVYLCG-NH2; thioether N-13) | < 50 |
| CC(=O)Nc1ccc(-c2ccc(C[C@@H]3NC(=O)[C@H](Cc4ccc(-c5ccc(C(=O)O)cc5)cc4)NC(=O)[C@H](CN4CCOCC4)NC(=O)CSC[C@@H](C(=O)NCC(N)=O)NC(=O)[C@H](CC(C)C)NC(=O)[C@H](CCCNC(=N)N)NC(=O)[C@H](C(C)C)NC(=O)[C@@H]4CCCN4C(=O)[C@H](C(C)C)NC(=O)[C@@H](CCCNC(=N)N)NC(=O)[C@H](CC(=O)O)NC(=O)[C@@H]4CCCN4C(=O)CN(C)C3=O)cc2)cc1 [Example 165] ({CH2CO}-[Ala(morpholin-4-yl)][Bip(4'-COOH)][Bip(4'-NHAc)][Sar]PD[dR]VPVRLCG-NH2; thioether N-13) | < 50 |
| CC(=O)Nc1ccc(-c2ccc(C[C@@H]3NC(=O)[C@H](Cc4ccc(-c5ccc(C(=O)O)cc5)cc4)NC(=O)[C@H](CN4CCOCC4)NC(=O)CSC[C@@H](C(=O)NCC(N)=O)NC(=O)[C@H](CC(C)C)NC(=O)[C@H](Cc4ccc(O)cc4)NC(=O)[C@H](C(C)C)NC(=O)[C@@H]4CCN4C(=O)[C@H](C(C)C)NC(=O)[C@@H](CCCNC(=N)N)NC(=O)[C@H](CC(=O)O)NC(=O)[C@H](Cc4ccc(O)cc4)NC(=O)CN(C)C3=O)cc2)cc1 [Example 166] ({CH2CO}-[Ala(morpholin-4-yl)][Bip(4'-COOH)][Bip(4'-NHAc)][Sar]YD[dR]V[Aze]VYLCG-NH2; thioether N-13) | < 50 |
| CC(=O)Nc1ccc(-c2ccc(C[C@@H]3NC(=O)[C@H](Cc4ccc(-c5ccc(C(=O)O)cc5)cc4)NC(=O)[C@H](CN4CCOCC4)NC(=O)CSC[C@@H](C(=O)NCC(N)=O)NC(=O)[C@H](CC(C)C)NC(=O)[C@H](Cc4ccc(O)cc4)NC(=O)[C@H](C(C)C)NC(=O)[C@@H]4COCCN4C(=O)[C@H](C(C)C)NC(=O)[C@@H](CCCNC(=N)N)NC(=O)[C@H](CC(=O)O)NC(=O)[C@H](Cc4ccc(O)cc4)NC(=O)CN(C)C3=O)cc2)cc1 [Example 167] ({CH2CO}-[Ala(morpholin-4-yl)][Bip(4'-COOH)][Bip(4'-NHAc)][Sar]YD[dR]V[Morpholine(3S-CO)]VYLCG-NH2; thioether N-13) | 50 to 200 |
| CC(=O)Nc1ccc(-c2ccc(C[C@@H]3NC(=O)[C@H](Cc4ccc(-c5ccc(C(=O)O)cc5)cc4)NC(=O)[C@H](CN4CCOCC4)NC(=O)CSC[C@@H](C(=O)NCC(N)=O)NC(=O)[C@H](CC(C)C)NC(=O)[C@H](Cc4ccc(O)cc4)NC(=O)[C@H](C(C)C)NC(=O)[C@@H]4CCCCN4C(=O)[C@H](C(C)C)NC(=O)[C@@H](CCCNC(=N)N)NC(=O)[C@H](CC(=O)O)NC(=O)[C@H](Cc4ccc(O)cc4)NC(=O)CN(C)C3=O)cc2)cc1 [Example 168] ({CH2CO}-[Ala(morpholin-4-yl)][Bip(4'-COOH)][Bip(4'-NHAc)][Sar]YD[dR]V[Pip]VYLCG-NH2; thioether N-13) | < 50 |
| CC(=O)Nc1ccc(-c2ccc(C[C@@H]3NC(=O)[C@H](Cc4ccc(-c5ccccc5)cc4)NC(=O)[C@H](CN4CCOCC4)NC(=O)CSC[C@@H](C(=O)N[C@@H](CCCCN)C(=O)O)NC(=O)[C@H](CC(C)C)NC(=O)[C@H](CCCNC(=N)N)NC(=O)[C@H](C(C)C)NC(=O)[C@@H]4CCCN4C(=O)[C@H](C(C)C)NC(=O)[C@@H](CCCNC(=N)N)NC(=O)[C@H](CC(=O)O)NC(=O)[C@@H]4CCCN4C(=O)CN(C)C3=O)cc2)cc1 [Example 169] ({CH2CO}-[Ala(morpholin-4-yl)][Bip][Bip(4'-NHAc)][Sar]PD[dR]VPVRLCK-OH; thioether N-13) | < 50 |
| CC(=O)Nc1ccc(-c2ccc(C[C@@H]3NC(=O)[C@H](Cc4ccc(-c5ccccc5)cc4)NC(=O)[C@H](CN4CCOCC4)NC(=O)CSC[C@@H](C(=O)NCC(N)=O)NC(=O)[C@H](CC(C)C)NC(=O)[C@H](Cc4ccc(O)cc4)NC(=O)[C@H](C(C)C)NC(=O)[C@@H]4CCN4C(=O)[C@H](C(C)C)NC(=O)[C@@H](CCCNC(=N)N)NC(=O)[C@H](CC(=O)O)NC(=O)[C@H](Cc4ccccn4)NC(=O)CN(C)C3=O)cc2)cc1 [Example 170] ({CH2CO}-[Ala(morpholin-4-yl)][Bip][Bip(4'-NHAc)][Sar][2Pal]D[dR]V[Aze]VYLCG-NH2; thioether N-13) | < 50 |
| CC(=O)Nc1ccc(-c2ccc(C[C@@H]3NC(=O)[C@H](Cc4ccc(-c5ccccc5)cc4)NC(=O)[C@H](CN4CCOCC4)NC(=O)CSC[C@@H](C(=O)NCC(N)=O)NC(=O)[C@H](CC(C)C)NC(=O)[C@H](Cc4cccc(CN)c4)NC(=O)[C@H](C(C)C)NC(=O)[C@@H]4CCCN4C(=O)[C@H](C(C)C)NC(=O)[C@@H](CCCNC(=N)N)NC(=O)[C@H](CC(=O)O)NC(=O)[C@H](Cc4ccccn4)NC(=O)CN(C)C3=O)cc2)cc1 [Example 171] ({CH2CO}-[Ala(morpholin-4-yl)][Bip][Bip(4'-NHAc)][Sar][2Pal]D[dR]VPV[Phe(3-CH2NH2)]LCG-NH2; thioether N-13) | < 50 |
| CC(=O)Nc1ccc(-c2ccc(C[C@@H]3NC(=O)[C@H](Cc4ccc(-c5ccccc5)cc4)NC(=O)[C@H](CN4CCOCC4)NC(=O)CSC[C@@H](C(=O)NCC(N)=O)NC(=O)[C@H](CC(C)C)NC(=O)[C@H](Cc4ccccn4)NC(=O)[C@H](C(C)C)NC(=O)[C@@H]4CCCN4C(=O)[C@H](C(C)C)NC(=O)[C@@H](CCCNC(=N)N)NC(=O)[C@H](CC(=O)O)NC(=O)[C@H](Cc4ccccn4)NC(=O)CN(C)C3=O)cc2)cc1 [Example 172] ({CH2CO}-[Ala(morpholin-4-yl)][Bip][Bip(4'-NHAc)][Sar][2Pal]D[dR]VPV[2Pal]LCG-NH2; thioether N-13) | < 50 |
| CC(=O)Nc1ccc(-c2ccc(C[C@@H]3NC(=O)[C@H](Cc4ccc(-c5ccccc5)cc4)NC(=O)[C@H](CN4CCOCC4)NC(=O)CSC[C@@H](C(=O)NCC(N)=O)NC(=O)[C@H](CC(C)C)NC(=O)[C@H](Cc4ccc(O)cc4)NC(=O)[C@H](C(C)C)NC(=O)[C@@H]4CCCN4C(=O)[C@H](CC(N)=O)NC(=O)[C@@H](CCCNC(=N)N)NC(=O)[C@H](CC(=O)O)NC(=O)[C@H](Cc4ccccn4)NC(=O)CN(C)C3=O)cc2)cc1 [Example 173] ({CH2CO}-[Ala(morpholin-4-yl)][Bip][Bip(4'-NHAc)][Sar][2Pal]D[dR]NPVYLCG-NH2; thioether N-13) | 50 to 200 |
| CC(=O)Nc1ccc(-c2ccc(C[C@@H]3NC(=O)[C@H](Cc4ccc(-c5ccccc5)cc4)NC(=O)[C@H](CN4CCOCC4)NC(=O)CSC[C@@H](C(=O)NCC(N)=O)NC(=O)[C@H](CC(C)C)NC(=O)[C@H](Cc4ccccc4)NC(=O)[C@H](C(C)C)NC(=O)[C@@H]4CCCN4C(=O)[C@H](C(C)C)NC(=O)[C@@H](CCCNC(=N)N)NC(=O)[C@H](CC(=O)O)NC(=O)[C@H](Cc4ccccc4)NC(=O)CN(C)C3=O)cc2)cc1 [Example 174] ({CH2CO}-[Ala(morpholin-4-yl)][Bip][Bip(4'-NHAc)][Sar]FD[dR]VPVFLCG-NH2; thioether N-13) | 50 to 200 |
